Experimental data from publication PMC9743093 (Journal of Medicinal Chemistry, 2022).
Where a SMILES comes first, the peptide text is derived from it. The star is where a group is joined. Cbz = O=C(OCc1ccccc1)*

Assays:
IDO1 [1] = molecular target: T1, IDO1 (Homo sapiens, UniProt P14902); experiment: IDO1 degradation by western blot in IFNγ-stimulated U87 cells; details: for effect of co-treatment on NU223612-induced IDO1 degradation: combined with NU223612; for effect on IDO1 protein levels: U87 and GBM43 GBM cells in vitro, western blot
T1 sequence (P14902 whole entry): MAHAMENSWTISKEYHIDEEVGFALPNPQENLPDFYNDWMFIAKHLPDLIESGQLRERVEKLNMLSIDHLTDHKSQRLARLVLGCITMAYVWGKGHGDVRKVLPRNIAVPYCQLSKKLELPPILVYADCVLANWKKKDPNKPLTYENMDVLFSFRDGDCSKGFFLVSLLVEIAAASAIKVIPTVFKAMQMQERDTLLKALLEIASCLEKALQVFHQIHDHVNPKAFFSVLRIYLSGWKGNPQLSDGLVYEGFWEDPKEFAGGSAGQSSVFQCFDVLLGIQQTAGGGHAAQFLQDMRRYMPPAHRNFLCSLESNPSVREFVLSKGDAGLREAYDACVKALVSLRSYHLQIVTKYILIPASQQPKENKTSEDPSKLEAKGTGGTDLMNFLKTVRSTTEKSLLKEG

CRBN = CRBN (Homo sapiens, UniProt Q96SW2); experiment: BLI binding of compounds to immobilized CRBN; details: steady-state, 30 °C, PBS with 0.5% DMSO
Sequence of CRBN (Q96SW2 whole entry): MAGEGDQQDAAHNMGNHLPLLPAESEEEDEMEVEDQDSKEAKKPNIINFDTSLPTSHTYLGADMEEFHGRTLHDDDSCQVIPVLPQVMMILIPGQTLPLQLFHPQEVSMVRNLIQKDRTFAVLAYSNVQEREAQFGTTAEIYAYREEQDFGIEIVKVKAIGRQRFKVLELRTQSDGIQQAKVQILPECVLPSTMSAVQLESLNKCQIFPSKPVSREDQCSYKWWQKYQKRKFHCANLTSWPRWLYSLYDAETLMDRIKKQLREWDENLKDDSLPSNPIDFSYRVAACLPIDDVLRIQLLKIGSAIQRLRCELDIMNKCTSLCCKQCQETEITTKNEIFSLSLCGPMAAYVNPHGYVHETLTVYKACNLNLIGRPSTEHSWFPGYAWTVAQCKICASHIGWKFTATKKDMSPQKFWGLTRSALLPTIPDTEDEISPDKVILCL

IDO1 [2] = molecular target: T1, IDO1; experiment: IDO1 ubiquitination assay in U87 IDO1-FLAG cDNA-expressing cells; type: cell-based; details: immunoprecipitation, vs DMSO
[3] = test system: NF-κB p65 phosphorylation; experiment: NF-κB p65 phosphorylation by western blot; type: cell-based, human; details: IFNγ-stimulated U87, GBM43 or MDA-MB-231 cells
GL261-luc. cells = experiment: Survival of mice with intracranial GL261-luc. tumors; type: in vivo, C57BL/6 mice; details: 25 mg/kg once per day Monday-Friday up to 3 weeks, from day 14 post-injection
[4] = molecular target: NU223612/IDO1/CRBN ternary complex (Homo sapiens, UniProt P14902+Q96SW2); experiment: BLI of NU223612 pre-incubated with CRBN binding to IDO1
Sequence of NU223612/IDO1/CRBN ternary complex (P14902 whole entry): as the sequence (P14902 whole entry) above
Sequence of NU223612/IDO1/CRBN ternary complex (Q96SW2 whole entry): as the sequence (Q96SW2 whole entry) above

IDO1 [5] = experiment: IDO1 degradation by western blot in further cancer cell lines; type: cell-based, human; details: CD18, PANC-1, OVCAR5, SKOV3, PC3, GL261 IDO1-O/E; 24 h
IDO1 [6] = molecular target: T1, IDO1; experiment: IDO1 degradation by western blot in IFNγ-stimulated GBM43 cells; details: 24 h, 0.01-30 μM, n = 3
IDO1 [7] = molecular target: T1, IDO1; experiment: BLI binding of compounds to immobilized IDO1
IDO1 [8] = molecular target: IDO1 (Mus musculus, UniProt P28776); experiment: Pharmacodynamics: IDO1 western blot of intracranial GL261 mIDO1 tumors; details: GL261 mIDO1 cDNA tumors, single 25 mg/kg ip.
Sequence of IDO1 (Mus musculus, UniProt P28776) (P28776 whole entry): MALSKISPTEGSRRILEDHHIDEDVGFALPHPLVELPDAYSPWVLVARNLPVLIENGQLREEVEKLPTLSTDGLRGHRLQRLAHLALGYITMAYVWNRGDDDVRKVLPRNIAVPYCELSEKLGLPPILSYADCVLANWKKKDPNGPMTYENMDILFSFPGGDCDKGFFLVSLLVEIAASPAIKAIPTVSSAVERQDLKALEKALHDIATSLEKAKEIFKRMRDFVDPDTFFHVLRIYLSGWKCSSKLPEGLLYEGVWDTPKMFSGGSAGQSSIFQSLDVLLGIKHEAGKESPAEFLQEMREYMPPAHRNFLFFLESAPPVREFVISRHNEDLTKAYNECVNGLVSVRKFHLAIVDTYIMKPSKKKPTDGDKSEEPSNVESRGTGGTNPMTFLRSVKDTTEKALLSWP

[9] = In vivo toxicity in C57BL/6 mice
IDO1 [10] = molecular target: T1, IDO1; experiment: IDO1 degradation by western blot in patient PBMCs; type: cell-based; details: GBM patient-isolated PBMCs, 50 ng/mL IFNγ
[11] = Pharmacokinetics in C57BL/6 mice; type: in vivo; details: mouse, single 25 mg/kg ip.
[12] = test system: NF-κB p65 DNA binding activity; experiment: NF-κB; type: cell-based, human; details: U87 nuclear extracts, 10 μM
TDO2 = TDO2 (Homo sapiens, UniProt P48775); experiment: TDO2 western blot in U87 cells; type: cell-based; details: 24 h
Sequence of TDO2 (P48775 whole entry): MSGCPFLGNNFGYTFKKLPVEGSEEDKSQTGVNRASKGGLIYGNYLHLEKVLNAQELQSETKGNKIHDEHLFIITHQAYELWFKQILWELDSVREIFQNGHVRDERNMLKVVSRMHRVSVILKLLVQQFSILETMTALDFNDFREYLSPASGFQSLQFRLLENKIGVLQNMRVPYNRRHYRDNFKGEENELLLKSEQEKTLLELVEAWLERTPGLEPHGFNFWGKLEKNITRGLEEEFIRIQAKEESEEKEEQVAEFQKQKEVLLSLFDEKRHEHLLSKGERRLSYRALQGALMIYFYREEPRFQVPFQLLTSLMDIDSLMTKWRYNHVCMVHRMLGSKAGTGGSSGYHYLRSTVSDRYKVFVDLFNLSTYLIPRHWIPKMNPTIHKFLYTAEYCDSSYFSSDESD

IDO2 = experiment: IDO1/IDO2 mRNA expression in GL261 cells; type: cell-based, mouse; details: 10 µM, 24 hours
IDO1 enzyme activity = IDO1 enzyme activity (Homo sapiens, UniProt P14902); experiment: Kynurenine assay; type: cell-based; details: IFNγ-stimulated GBM cells (U87, GBM43), 24 h
Sequence of IDO1 enzyme activity (P14902 whole entry): as the sequence (P14902 whole entry) above

Nc1cccc2c1C(=O)N(C1CCC(=O)NC1=O)C2=O (stereo not shown) [pomalidomide, reference compound]
effect of co-treatment on NU223612-induced IDO1 degradation (IDO1 [1]; U87 cells): ablation of IDO1-PROTAC-mediated IDO1 protein degradation

C[C@@H](C(=O)Nc1ccc(OC2CCN(C(=O)CCOCCOCCNc3cccc4c3C(=O)N(C3CCC(=O)N(C)C3=O)C4=O)CC2)cc1)[C@H]1CC[C@@H](c2ccnc3ccc(F)cc32)CC1 (stereo partly drawn) [NU226211, (2R)-2-((1S,4S)-4-(6-Fluoroquinolin-4-yl)cyclohexyl)-N-(4-((1-(3-(2-(2-((2-(1-methyl-2,6-dioxopiperidin-3-yl)-1,3-dioxoisoindolin-4-yl)amino)ethoxy)ethoxy)propanoyl)piperidin-4-yl)oxy)phenyl)propenamide]
effect on IDO1 protein levels (IDO1 [1]): neither NU226211 nor NU223618 decreases IDO1 protein levels
binding affinity (Kd) to CRBN (CRBN): no measurable binding
ubiquitination of IDO1 (IDO1 [2]): neither NU226211 nor NU223618 mediated the ubiquitination
p65 phosphorylation [3]: neither NU226211 nor NU223618 inhibits NF-κB phosphorylation

CC(C)C[C@@H](C=O)NC(=O)[C@H](CC(C)C)NC(=O)[C@H](CC(C)C)NC(=O)OCc1ccccc1 [MG132, reference compound] (Cbz-Leu-Leu-Leu-aldehyde)
effect of co-treatment on NU223612-induced IDO1 degradation (IDO1 [1]; U87 cells): ablation of IDO1-PROTAC-mediated IDO1 protein degradation

NS(=O)(=O)OC[C@@H]1C[C@@H](n2ccc3c(N[C@H]4CCc5ccccc54)ncnc32)C[C@@H]1O [MLN4924, reference compound]
effect of co-treatment on NU223612-induced IDO1 degradation (IDO1 [1]; U87 cells): ablation of IDO1-PROTAC-mediated IDO1 protein degradation

C[C@@H](C(=O)Nc1ccc(Cl)cc1)[C@H]1CC[C@@H](c2ccnc3ccc(F)cc32)CC1 [NU223618, reference compound]
p65 phosphorylation [3]: neither NU226211 nor NU223618 inhibits NF-κB phosphorylation

C[C@@H](C(=O)Nc1ccc(OC2CCN(C(=O)CCOCCOCCNc3cccc4c3C(=O)N(C3CCC(=O)NC3=O)C4=O)CC2)cc1)[C@H]1CC[C@@H](c2ccnc3ccc(F)cc32)CC1 (stereo partly drawn) [NU223612, (2R)-N-(4-((1-(3-(2-(2-((2-(2,6-Dioxopiperidin-3-yl)-1,3-dioxoisoindolin-4-Yl)amino)ethoxy)ethoxy)propanoyl)piperidin-4-yl)oxy)phenyl)-2-((1S,4S)-4-(6-fluoroquinolin-4-yl)cyclohexyl)propenamide]
longer-term survival post-tumor cell injection (GL261-luc. cells): up to 45 days
effect on IDO1 protein levels (IDO1 [1]): decreases IDO1 protein levels dose-dependently
degradation of catalytically inactive mutant IDO1 (IDO1 [1]; U87 cells transfected with enzyme-null IDO1 cDNA, 24 h): facilitated protein degradation of IDO1 enzyme-dead protein
IDO1 protein degradation at 100 nM (IDO1 [1]; U87 cells, 100 nM, 24 h): significant IDO1 protein degradation
duration of IDO1 degradation after a single continuous treatment (IDO1 [1]; U87 cells, 1 and 10 μM): up to 72 h
DC50 (IDO1 [1]; U87 cells, IFNγ-stimulated, 24 h, 0.01-30 μM, n = 3): 329 nM
effect of washout after 24 h on IDO1 degradation (IDO1 [1]; U87 cells, cultured without compound up to 48 h): did not affect the degradation of IDO1 protein
nuclear and cytoplasmic IDO1 degradation (IDO1 [1]; U87 cells, subcellular fractions): equally degraded IDO1 protein levels in both the cytoplasmic and nuclear intracellular compartments
duration of IDO1 degradation effect (IDO1 [1]; human GBM cells (U87, GBM43)): at least 96 h
time at which IDO1 degradation began after treatment initiation (IDO1 [1]; human GBM cells (U87, GBM43)): 16 h
Kd [4]: 117 nM
cooperativity α = Kd binary/Kd ternary [4]: 2.5
koff ([4]; read-out: koff, ternary NU223612/CRBN/IDO1 complex): 0.0015 s⁻¹
kon ([4]; read-out: kon, ternary NU223612/CRBN/IDO1 complex): 12800 M⁻¹ s⁻¹
IDO1 degradation in other cancer cell types (IDO1 [5]): dose-dependently degrades IDO1 in all of the human cancer cell types that were analyzed
DC50 (IDO1 [6]): 544 nM
koff (IDO1 [7]; read-out: koff, NU223612/IDO1 binary complex): 0.042 s⁻¹
kon (IDO1 [7]; read-out: kon, NU223612/IDO1 binary complex): 68900 M⁻¹ s⁻¹
time IDO1 protein remains low in intracranial tumors (IDO1 [8]): up to 24 h
decrease of IDO1 protein in intracranial tumors (IDO1 [8]; within 2 h post-treatment): > 70%
mortality ([9]; 100 mg/kg ip. 5 days/week for 3 weeks): increased mortality
precipitation of compound in the abdomen ([9]; 50 and 100 mg/kg doses ip.): precipitation of NU223612 observed around the intestines, liver, and pancreas
accumulation in serum and brain tissue ([9]; after 3 weeks ip., mice without brain tumors, mass spectrometry): dose-dependent accumulation of NU223612 in serum and brain tissue
body-weight changes ([9]; ip. 5 days/week for 3 weeks, 10, 25, 50 or 100 mg/kg): did not result in significant body-weight changes at any dose
IDO1 degradation in PBMCs (IDO1 [10]): degrades IDO1 protein
ubiquitination of IDO1 (IDO1 [2]): causes monoubiquitination of IDO1
Cmax, brain [11]: 2000 nM
NF-κB p65 transcription factor DNA binding activity [12]: inhibits both IDO1-mediated tryptophan metabolism as well as IDO1 non-enzyme-mediated NF-κB p65 transcription factor DNA binding activity
p65 phosphorylation [3]: decreases p65 phosphorylation
effect on TDO2 protein levels (TDO2): did not decrease TDO2 protein levels
IDO2 (and IDO1) mRNA expression levels (IDO2): no significant NU223612 effects on glioma cell IDO2 expression levels
IDO1 enzyme activity (Kyn levels) (IDO1 enzyme activity): dose-dependently inhibits IDO1 enzyme activity
